In article PMC6150406, “Adding an Artificial Tail—Anchor to a Peptide-Based HIV-1 Fusion Inhibitor for Improvement of Its Potency and Resistance Profile” (Molecules : A Journal of Synthetic Chemistry and Natural …, 2017):
Like-named read-outs stand apart in the source and are kept apart here. Where a SMILES comes first, the peptide text is derived from it.

Columns and labels:
BK132/GS009 (B, X4) = conditions: clinical isolate BK132/GS009 (B, X4); MT-2 cells, p24 ELISA day 4
Procedure: (§1) Inhibitory activities of peptides on infection by laboratory-adapted HIV-1 X4 strain IIIB and HIV-1 R5 strain Bal, and HIV-1 clinical strains, as well as T20-, T2635- and HP23-resistant strains, were determined as described previously. For each well of the 96-well plate, 104 MT-2 cells or CEMx174 5.25 M7 cells with graded concentrations of peptide were infected by […] TCID50 of the HIV-1 virus X4 or R5 strains, respectively. After overnight culture, the medium was replaced with fresh RPMI 1640 medium containing 10% FBS. Fifty microliters of culture supernatant were collected from each well on the fourth day for MT-2 cells and the seventh day for CEMx174 5.25 M7 cells. The supernatant was mixed with equal volumes of 5% Triton X-100. The p24 antigen was detected by ELISA as previously described. IC50 values were calculated using the Calcusyn software program (Biosoft, Ferguson, MO, USA).

HIV-1 V38A = conditions: T20-resistant V38A; p24 ELISA
Procedure: as §1

HIV-1 Q66R = conditions: T2635-resistant Q66R; p24 ELISA
Procedure: as §1

93IN101 (C, R5) = conditions: clinical isolate 93IN101 (C, R5); CEMx174 5.25 M7 cells, p24 ELISA day 7
Procedure: as §1

HIV-1 A6V = conditions: T2635-resistant A6V; p24 ELISA
Procedure: as §1

HIV-1 K90E/N126K = conditions: T2635-resistant K90E/N126K; p24 ELISA
Procedure: as §1

92TH009 (A/E, R5) = conditions: clinical isolate 92TH009 (A/E, R5); CEMx174 5.25 M7 cells, p24 ELISA day 7
Procedure: as §1

KER2018 (A, R5) = conditions: clinical isolate KER2018 (A, R5); CEMx174 5.25 M7 cells, p24 ELISA day 7
Procedure: as §1

HIV-1 Q79E = conditions: T2635-resistant Q79E; p24 ELISA
Procedure: as §1

HIV-1 D36G/E49K/N126K = conditions: HP23-resistant D36G/E49K/N126K; p24 ELISA
Procedure: as §1

HIV-1 Q66R/N113E = conditions: T2635-resistant Q66R/N113E; p24 ELISA
Procedure: as §1

HIV-1 K154Q = conditions: T2635-resistant K154Q; p24 ELISA
Procedure: as §1

HIV-1 E49K/N126K = conditions: HP23-resistant E49K/N126K; p24 ELISA
Procedure: as §1

HIV-1 H3C = conditions: T2635-resistant H3C; p24 ELISA
Procedure: as §1

HIV-1 Bal (R5 virus) = conditions: read-out: IC50, HIV-1 Bal infection; CEMx174 5.25 M7 cells; p24 ELISA, seventh day
Procedure: as §1

[1] = test system: HIV-1 L34S/D36G/E49K/E136G; conditions: HP23-resistant L34S/D36G/E49K/E136G; p24 ELISA
Procedure: as §1

HIV-1 V38A, N42D = conditions: T20-resistant V38A, p24 ELISA
Procedure: as §1

HIV-1 V38A, N42T = conditions: T20-resistant V38A, p24 ELISA
Procedure: as §1

HIV-1 N113E = conditions: T2635-resistant N113E; p24 ELISA
Procedure: as §1

US4GS007 (B, R5) = conditions: clinical isolate US4GS007 (B, R5); CEMx174 5.25 M7 cells, p24 ELISA day 7
Procedure: as §1

HIV-1 E49K = conditions: HP23-resistant E49K; p24 ELISA
Procedure: as §1

93BR020 (F, X4/R5) = conditions: clinical isolate 93BR020 (F, X4/R5); p24 ELISA
Procedure: as §1

HIV-1 WT = conditions: WT of T20-resistant panel; p24 ELISA
Procedure: as §1

92UG024 (D, X4) = conditions: clinical isolate 92UG024 (D, X4); MT-2 cells, p24 ELISA day 4
Procedure: as §1

HIV-1 N126K = conditions: T2635-resistant N126K; p24 ELISA
Procedure: as §1

HIV-1 K90E = conditions: T2635-resistant K90E; p24 ELISA
Procedure: as §1

NP1525 (A/E, X4/R5) = conditions: clinical isolate NP1525 (A/E, X4/R5); p24 ELISA
Procedure: as §1

90US_873 (B, R5) = conditions: clinical isolate 90US_873 (B, R5); CEMx174 5.25 M7 cells, p24 ELISA day 7
Procedure: as §1

KNH1135 (A, R5) = conditions: clinical isolate KNH1135 (A, R5); CEMx174 5.25 M7 cells, p24 ELISA day 7
Procedure: as §1

HIV-1 V38E, N42S = conditions: T20-resistant V38E, p24 ELISA
Procedure: as §1

HIV-1 wild-type = conditions: p24 ELISA
Procedure: as §1

HIV-1 Q79E/N126K = conditions: T2635-resistant Q79E/N126K; p24 ELISA
Procedure: as §1

HIV-1 IIIB (X4 virus) = conditions: read-out: IC50, HIV-1 IIIB infection; MT-2 cells; p24 ELISA, fourth day
Procedure: as §1

[2] = target: T1, 6-HB formation between N46 and C34 (Human immunodeficiency virus type 1 group M subtype B, UniProt P04578); test: Inhibition of 6-HB formation between N46 and C34 (ELISA, NC-1); assay type: biochemical, HIV-1; conditions: ELISA with NC-1 mAb; 1 μM N46; 37 °C 30 min then 1 h; A450
T1 construct: NHR peptide N46 (aa 536-581 of NHR)
Procedure: The inhibitory activity of peptides on 6-HB formation was measured by a modified ELISA as previously described. Briefly, a 96-well polystyrene plate (Costar, Corning Inc., Corning, NY, USA) was coated with 50 μL 2 μg/mL NY364 (a polyclonal antibody for HIV-1 gp41 subunit) in 0.1 M Tris buffer (pH 8.8). A mixture of 1 μM N46 and C-peptide with graded concentrations was added to the coated plate after incubation at 37 °C for 30 min. After another 1 hour incubation at 37 °C, the plate was washed with washing buffer (PBS containing 0.1% Tween 20) three times and refilled by 50 μL 1 μg/mL NC-1 (a monoclonal antibody specific for HIV-1 gp41 6-HB formed by NHR and CHR). Afterwards, 50 μL of horseradish peroxidase (HRP)-labeled rabbit anti-mouse antibody (Sigma, St. Louis, MO, USA) (1:4000 diluted) were added to the wells of plate, followed by incubation for 1 h and washing. Finally, the substrate 3,3,5,5-tetramethylbenzidine (TMB, Sigma, St. Louis, MO, USA) was added. Absorbance at 450 nm (A450) was tested by an ELISA reader (Ultra 384, Tecan, NC, USA).

[3] = test system: cell–cell fusion between H9/HIV-1IIIB cells and MT-2 cells; conditions: read-out: IC50, cell–cell fusion; H9/HIV-1IIIB (Calcein AM) with MT-2 cells, 37 °C, 2 h
Procedure: A dye transfer assay was used to detect HIV-1 Env-mediated cell-cell fusion as described previously. […] For each well of the 96-well plate, 50 μL 2 × 10^4/mL labeled H9/HIV-1IIIB cells were then incubated with 100 μL 1 × 10^5/mL MT-2 cells at 37 °C for 2 h in the presence or absence of the tested peptide at graded concentrations. […] The IC50 values were calculated by using the Calcusyn computer program (Biosoft, Ferguson, MO, USA).

[4] = clinical use; cited from earlier work

T1 sequence (P04578 536-581): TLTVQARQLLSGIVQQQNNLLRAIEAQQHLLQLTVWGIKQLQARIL

CC[C@H](C)[C@H](NC(=O)[C@H](CCC(=O)O)NC(=O)[C@H](CCC(=O)O)NC(=O)[C@@H](NC(=O)[C@H](CCCCN)NC(=O)[C@H](CCCCN)NC(=O)[C@@H](NC(=O)[C@H](Cc1ccc(O)cc1)NC(=O)[C@H](CCC(=O)O)NC(=O)[C@H](CCC(=O)O)NC(=O)[C@@H](NC(=O)[C@H](CCCCN)NC(=O)[C@H](CCCCN)NC(=O)[C@H](CCC(=O)O)NC(=O)[C@H](Cc1c[nH]c2ccccc12)NC(=O)[C@H](CCC(=O)O)NC(=O)[C@H](CCC(=O)O)NC(=O)[C@H](Cc1c[nH]c2ccccc12)NC(=O)[C@@H](NC(=O)[C@H](CCSC)NC(=O)[C@@H](N)CCC(=O)O)[C@@H](C)O)[C@@H](C)CC)[C@@H](C)O)[C@@H](C)CC)C(=O)N[C@@H](CC(C)C)C(=O)N[C@@H](CCCCN)C(=O)O [HP23] (H-EMTWEEWEKKIEEYTKKIEEILK-OH)
IC50 (BK132/GS009 (B, X4)): 7.2 ± 0.5 nM
IC50 (HIV-1 V38A): 2.1 ± 0.7 nM
IC50 (HIV-1 Q66R): 2.8 ± 0.1 nM
IC50 (93IN101 (C, R5)): 3.7 ± 0.3 nM
IC50 (HIV-1 A6V): 1.6 ± 0.5 nM
IC50 (HIV-1 K90E/N126K): 4.2 ± 0.3 nM
IC50 (92TH009 (A/E, R5)): 0.8 ± 0.2 nM
IC50 (KER2018 (A, R5)): 1.9 ± 0.2 nM
IC50 (HIV-1 Q79E): 4.2 ± 0.7 nM
IC50 (HIV-1 D36G/E49K/N126K): > 60 nM
IC50 (HIV-1 Q66R/N113E): 3.6 ± 0.3 nM
IC50 (HIV-1 K154Q): 7.4 ± 0.4 nM
IC50 (HIV-1 E49K/N126K): 53.8 ± 1.2 nM
IC50 (HIV-1 H3C): 5.4 ± 0.4 nM
IC50 (HIV-1 Bal (R5 virus)): 5.96 nM
IC50 [1]: > 60 nM
IC50 (HIV-1 V38A, N42D): 2.9 ± 0.3 nM
IC50 (HIV-1 V38A, N42T): 1.5 ± 0.3 nM
IC50 (HIV-1 N113E): 2.3 ± 0.5 nM
IC50 (US4GS007 (B, R5)): 3.9 ± 0.6 nM
IC50 (HIV-1 E49K): 13.4 ± 0.7 nM
IC50 (93BR020 (F, X4/R5)): 4.5 ± 0.2 nM
IC50 (HIV-1 WT): 3.1 ± 0.1 nM
IC50 (92UG024 (D, X4)): 3.5 ± 0.2 nM
IC50 (HIV-1 N126K): 8.6 ± 0.4 nM
IC50 (HIV-1 K90E): 9.4 ± 0.3 nM
IC50 (NP1525 (A/E, X4/R5)): 9.5 ± 0.6 nM
IC50 (90US_873 (B, R5)): 3.4 ± 0.6 nM
IC50 (KNH1135 (A, R5)): 2.2 ± 0.3 nM
IC50 (HIV-1 V38E, N42S): 6.2 ± 0.3 nM
IC50 (HIV-1 wild-type; wild-type of HP23-resistant panel): 3.3 ± 0.3 nM
IC50 (HIV-1 wild-type; wild-type of T2635-resistant panel): 2.8 ± 0.2 nM
IC50 (HIV-1 Q79E/N126K): 5.2 ± 0.4 nM
IC50 (HIV-1 IIIB (X4 virus)): 1.68 nM
IC50 [2]: 3720 nM
IC50 [3]: 5.12 nM

enfuvirtide
half-life (in words) [4]: short half-life
oral bioavailability (in words) [4]: lack of oral bioavailability
IC50 [3]: 16.6 nM
